In the NIST ThermoML archive (doi:10.1016/j.tca.2015.06.020):
Numbers after ± are expanded uncertainties.

Settings: Crystal; DTA

SMILES	Normal melting temperature
COc1c([N+](=O)[O-])cc(Cn2ccnn2)cc1[N+](=O)[O-] [1-(4-methoxy-3,5-dinitrobenzyl)-1H-1,2,3-triazole]	90.13 ± 3 °C
COc1ccc([N+](=O)[O-])c(-n2ccnn2)c1[N+](=O)[O-] [1-(3-methoxy-2,6-dinitrophenyl)-1H-1,2,3-triazole]	168.96 ± 3 °C
